# ChEMBL document CHEMBL4190265, “Structural optimization elaborates novel potent Akt inhibitors with promising anticancer activity” (Eur J Med Chem, 2017)
# What was measured:
# [1] = molecular target: RAC-alpha serine/threonine-protein kinase (Homo sapiens, UniProt P31749); assay: Inhibition of AKT1 (unknown origin) using biotinylated-STK as substrate after 45 mins by HTRF assay
# JeKo-1 [2] = assay: Cell cycle arrest in human JeKo1 cells assessed as accumulation at G0/G1 phase at 0.5 uM after 24 hrs by propidium iodide staining based flow cytometry (reference value: 44.8%); format: functional
# JeKo-1 [3] = assay: Induction of apoptosis in human JeKo1 cells assessed as necrotic cells at 5 uM after 48 hrs by Annexin V-FITC/propidium iodide double staining based flow cytometry (reference value: 0.81%); format: functional
# JeKo-1 [4] = assay: Induction of apoptosis in human JeKo1 cells assessed as late apoptotic cells at 1 uM after 48 hrs by Annexin V-FITC/propidium iodide double staining based flow cytometry (reference value: 2.06%); format: functional
# JeKo-1 [5] = assay: Induction of apoptosis in human JeKo1 cells assessed as early apoptotic cells at 1 uM after 72 hrs by Annexin V-FITC/propidium iodide double staining based flow cytometry (reference value: 5.42%); format: functional
# JeKo-1 [6] = assay: Induction of apoptosis in human JeKo1 cells assessed as early apoptotic cells at 1 uM after 48 hrs by Annexin V-FITC/propidium iodide double staining based flow cytometry (reference value: 5.42%); format: functional
# JeKo-1 [7] = assay: Antiproliferative activity against human JeKo1 cells after 72 hrs by CellTiter Glo assay; format: functional, cell-based; details: JeKo-1, 72 h
# JeKo-1 [8] = assay: Induction of apoptosis in human JeKo1 cells assessed as viable cells at 0.5 uM after 48 hrs by Annexin V-FITC/propidium iodide double staining based flow cytometry (reference value: 91.1%); format: functional; details: JeKo-1, 48 h, read-out: Activity
# JeKo-1 [9] = assay: Induction of apoptosis in human JeKo1 cells assessed as viable cells at 1 uM after 48 hrs by Annexin V-FITC/propidium iodide double staining based flow cytometry (reference value: 91.1%); format: functional; details: JeKo-1, 48 h, read-out: Activity
# [10] = Antiproliferative activity against human Mino cells after 72 hrs by CellTiter Glo assay; format: functional, cell-based
# JeKo-1 [11] = assay: Induction of apoptosis in human JeKo1 cells assessed as late apoptotic cells at 5 uM after 48 hrs by Annexin V-FITC/propidium iodide double staining based flow cytometry (reference value: 1.9%); format: functional
# [12] = Antiproliferative activity against human SP49 cells after 72 hrs by CellTiter Glo assay; format: functional, cell-based
# JeKo-1 [13] = assay: Induction of apoptosis in human JeKo1 cells assessed as necrotic cells at 1 uM after 72 hrs by Annexin V-FITC/propidium iodide double staining based flow cytometry (reference value: 0.62%); format: functional
# JeKo-1 [14] = assay: Induction of apoptosis in human JeKo1 cells assessed as late apoptotic cells at 1 uM after 24 hrs by Annexin V-FITC/propidium iodide double staining based flow cytometry (reference value: 2.06%); format: functional
# JeKo-1 [15] = assay: Induction of apoptosis in human JeKo1 cells assessed as necrotic cells at 1 uM after 24 hrs by Annexin V-FITC/propidium iodide double staining based flow cytometry (reference value: 0.62%); format: functional
# JeKo-1 [16] = assay: Induction of apoptosis in human JeKo1 cells assessed as viable cells at 1 uM after 48 hrs by Annexin V-FITC/propidium iodide double staining based flow cytometry (reference value: 91.9%); format: functional; details: JeKo-1, 48 h, read-out: Activity
# JeKo-1 [17] = assay: Induction of apoptosis in human JeKo1 cells assessed as necrotic cells at 1 uM after 48 hrs by Annexin V-FITC/propidium iodide double staining based flow cytometry (reference value: 0.81%); format: functional
# Z-138 = assay: Antiproliferative activity against human Z138 cells after 72 hrs by CellTiter Glo assay; format: functional, cell-based; details: Z-138, 72 h
# JeKo-1 [18] = assay: Induction of apoptosis in human JeKo1 cells assessed as early apoptotic cells at 0.5 uM after 48 hrs by Annexin V-FITC/propidium iodide double staining based flow cytometry (reference value: 6.18%); format: functional
# JeKo-1 [19] = assay: Induction of apoptosis in human JeKo1 cells assessed as necrotic cells at 0.5 uM after 48 hrs by Annexin V-FITC/propidium iodide double staining based flow cytometry (reference value: 0.81%); format: functional
# JeKo-1 [20] = assay: Induction of apoptosis in human JeKo1 cells assessed as late apoptotic cells at 1 uM after 72 hrs by Annexin V-FITC/propidium iodide double staining based flow cytometry (reference value: 2.06%); format: functional
# JeKo-1 [21] = assay: Cell cycle arrest in human JeKo1 cells assessed as accumulation at S phase at 1 uM after 24 hrs by propidium iodide staining based flow cytometry (reference value: 36.8%); format: functional
# JeKo-1 [22] = assay: Cell cycle arrest in human JeKo1 cells assessed as accumulation at G0/G1 phase at 1 uM after 24 hrs by propidium iodide staining based flow cytometry (reference value: 44.8%); format: functional
# JeKo-1 [23] = assay: Induction of apoptosis in human JeKo1 cells assessed as early apoptotic cells at 1 uM after 24 hrs by Annexin V-FITC/propidium iodide double staining based flow cytometry (reference value: 5.42%); format: functional
# JeKo-1 [24] = assay: Induction of apoptosis in human JeKo1 cells assessed as early apoptotic cells at 1 uM after 48 hrs by Annexin V-FITC/propidium iodide double staining based flow cytometry (reference value: 6.18%); format: functional
# JeKo-1 [25] = assay: Induction of apoptosis in human JeKo1 cells assessed as necrotic cells at 1 uM after 48 hrs by Annexin V-FITC/propidium iodide double staining based flow cytometry (reference value: 0.62%); format: functional
# JeKo-1 [26] = assay: Cell cycle arrest in human JeKo1 cells assessed as accumulation at G2/M phase at 0.5 uM after 24 hrs by propidium iodide staining based flow cytometry (reference value: 18.4%); format: functional
# JVM-2 = assay: Antiproliferative activity against human JVM2 cells after 72 hrs by CellTiter Glo assay; format: functional, cell-based; details: JVM-2, 72 h
# JeKo-1 [27] = assay: Induction of apoptosis in human JeKo1 cells assessed as late apoptotic cells at 1 uM after 48 hrs by Annexin V-FITC/propidium iodide double staining based flow cytometry (reference value: 1.9%); format: functional
# JeKo-1 [28] = assay: Cell cycle arrest in human JeKo1 cells assessed as accumulation at G2/M phase at 1 uM after 24 hrs by propidium iodide staining based flow cytometry (reference value: 18.4%); format: functional
# JeKo-1 [29] = assay: Cell cycle arrest in human JeKo1 cells assessed as accumulation at S phase at 0.5 uM after 24 hrs by propidium iodide staining based flow cytometry (reference value: 36.8%); format: functional
# JeKo-1 [30] = assay: Induction of apoptosis in human JeKo1 cells assessed as early apoptotic cells at 5 uM after 48 hrs by Annexin V-FITC/propidium iodide double staining based flow cytometry (reference value: 6.18%); format: functional
# JeKo-1 [31] = assay: Induction of apoptosis in human JeKo1 cells assessed as viable cells at 1 uM after 24 hrs by Annexin V-FITC/propidium iodide double staining based flow cytometry (reference value: 91.9%); format: functional; details: JeKo-1, 24 h, read-out: Activity
# JeKo-1 [32] = assay: Induction of apoptosis in human JeKo1 cells assessed as viable cells at 5 uM after 48 hrs by Annexin V-FITC/propidium iodide double staining based flow cytometry (reference value: 91.1%); format: functional; details: JeKo-1, 48 h, read-out: Activity
# JeKo-1 [33] = assay: Induction of apoptosis in human JeKo1 cells assessed as viable cells at 1 uM after 72 hrs by Annexin V-FITC/propidium iodide double staining based flow cytometry (reference value: 91.9%); format: functional; details: JeKo-1, 72 h, read-out: Activity
# JeKo-1 [34] = assay: Induction of apoptosis in human JeKo1 cells assessed as late apoptotic cells at 0.5 uM after 48 hrs by Annexin V-FITC/propidium iodide double staining based flow cytometry (reference value: 1.9%); format: functional
# Maver1 = assay: Antiproliferative activity against human Maver1 cells after 72 hrs by CellTiter Glo assay; format: functional, cell-based; details: Maver1, 72 h
# Chain of RAC-alpha serine/threonine-protein kinase (P31749 whole entry): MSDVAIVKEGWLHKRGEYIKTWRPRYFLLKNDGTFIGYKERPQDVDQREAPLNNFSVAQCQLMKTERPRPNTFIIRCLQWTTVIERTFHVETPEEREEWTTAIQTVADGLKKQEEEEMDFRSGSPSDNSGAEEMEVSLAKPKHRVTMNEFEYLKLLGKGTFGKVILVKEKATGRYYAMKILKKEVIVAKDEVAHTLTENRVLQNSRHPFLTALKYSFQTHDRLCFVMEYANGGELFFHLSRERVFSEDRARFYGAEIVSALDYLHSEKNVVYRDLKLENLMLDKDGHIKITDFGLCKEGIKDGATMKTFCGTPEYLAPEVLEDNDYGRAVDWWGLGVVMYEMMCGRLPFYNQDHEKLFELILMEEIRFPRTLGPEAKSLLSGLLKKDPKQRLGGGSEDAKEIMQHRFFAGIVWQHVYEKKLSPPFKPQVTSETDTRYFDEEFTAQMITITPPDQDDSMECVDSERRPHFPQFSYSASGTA
smiles,measurement,setting,value
O=C(N1CCN(c2ncnc3[nH]cc(Br)c23)CC1)C1(c2ccc(Cl)c(Cl)c2)CCNCC1,IC50,[1],0.0043 µM
COc1ccc(C2(C(=O)N3CCN(c4ncnc5[nH]cc(Br)c45)CC3)CCNCC2)cc1,IC50,[1],0.0141 µM
O=C(N1CCN(c2ncnc3[nH]cc(Br)c23)CC1)C1(c2cccc(Br)c2)CCNCC1,IC50,[1],0.0076 µM
O=C(N1CCN(c2ncnc3[nH]ccc23)CC1)C1(c2ccc(Br)cc2)CCNCC1,IC50,[1],0.0271 µM
O=C(N1CCN(c2ncnc3[nH]cc(Cl)c23)CC1)C1(c2ccc(Cl)c(Cl)c2)CCNCC1,IC50,[1],0.0029 µM
O=C(N1CCN(c2ncnc3[nH]cc(Cl)c23)CC1)C1(c2ccc(Br)cc2)CCNCC1,Activity,JeKo-1 [2],46.1%
same,Activity,JeKo-1 [3],0.43%
same,Activity,JeKo-1 [4],16.6%
same,Activity,JeKo-1 [5],53.5%
same,Activity,JeKo-1 [6],34%
same,IC50,JeKo-1 [7],0.3 µM
same,viability at 0.5 µM,JeKo-1 [8],75.6%
same,viability at 1 µM,JeKo-1 [9],49.1%
same,IC50,[10],0.7 µM
same,Activity,JeKo-1 [11],23%
same,IC50,[12],1.5 µM
same,IC50,[1],0.0018 µM
same,Activity,JeKo-1 [13],0.26%
same,Activity,JeKo-1 [14],20.4%
same,Activity,JeKo-1 [15],0.091%
same,viability at 1 µM,JeKo-1 [16],49.1%
same,Activity,JeKo-1 [17],0.21%
same,IC50,Z-138,0.2 µM
same,Activity,JeKo-1 [18],15.4%
same,Activity,JeKo-1 [19],0.7%
same,Activity,JeKo-1 [20],10.7%
same,Activity,JeKo-1 [21],18.8%
same,Activity,JeKo-1 [22],8.8%
same,Activity,JeKo-1 [23],9.81%
same,Activity,JeKo-1 [24],34%
same,Activity,JeKo-1 [25],0.21%
same,Activity,JeKo-1 [26],32.7%
same,IC50,JVM-2,0.7 µM
same,Activity,JeKo-1 [27],16.6%
same,Activity,JeKo-1 [28],72.4%
same,Activity,JeKo-1 [29],21.2%
same,Activity,JeKo-1 [30],70.1%
same,viability at 1 µM,JeKo-1 [31],69.7%
same,viability at 5 µM,JeKo-1 [32],6.4%
same,viability at 1 µM,JeKo-1 [33],35.6%
same,Activity,JeKo-1 [34],8.31%
same,IC50,Maver1,0.3 µM
O=C(N1CCN(c2ncnc3[nH]cc(Br)c23)CC1)C1(c2ccc(Cl)cc2)CCNCC1,IC50,JeKo-1 [7],1.2 µM
same,IC50,[10],3.5 µM
same,IC50,[12],4.7 µM
same,IC50,[1],0.0015 µM
same,IC50,Z-138,1.7 µM
same,IC50,JVM-2,2.3 µM
same,IC50,Maver1,1.8 µM
CCn1c(-c2nonc2N)nc2c(C#CC(C)(C)O)ncc(OC[C@H]3CCCNC3)c21 [GSK-690693],IC50,JeKo-1 [7],3 µM
same,IC50,[10],20.8 µM
same,IC50,[12],4.8 µM
same,IC50,Z-138,3.1 µM
same,IC50,JVM-2,1.6 µM
same,IC50,Maver1,5.1 µM
O=C(N1CCN(c2ncnc3[nH]ccc23)CC1)C1(c2ccc(Cl)cc2)CCNCC1,IC50,[1],0.0265 µM
O=C(N1CCN(c2ncnc3[nH]cc(Br)c23)CC1)C1(c2ccccc2)CCNCC1,IC50,[1],0.0203 µM
O=C(N1CCN(c2ncnc3[nH]cc(Cl)c23)CC1)C1(c2cccc(Br)c2)CCNCC1,IC50,[1],0.0056 µM
COc1ccc(C2(C(=O)N3CCN(c4ncnc5[nH]ccc45)CC3)CCNCC2)cc1,IC50,[1],0.0356 µM
CC(C)(C)c1ccc(C2(C(=O)N3CCN(c4ncnc5[nH]ccc45)CC3)CCNCC2)cc1,IC50,[1],> 0.04 µM
O=C(N1CCN(c2ncnc3[nH]ccc23)CC1)C1(c2ccc(Cl)c(Cl)c2)CCNCC1,IC50,[1],> 0.04 µM
O=C(Cc1ccc(Cl)cc1)N1CCN(c2ncnc3[nH]cc(Br)c23)CC1,IC50,JeKo-1 [7],8.7 µM
same,IC50,[10],18.1 µM
same,IC50,[12],7.8 µM
same,IC50,[1],0.018 µM
same,IC50,Z-138,6.8 µM
same,IC50,JVM-2,9.9 µM
same,IC50,Maver1,18.5 µM
O=C(N1CCN(c2ncnc3[nH]cc(Cl)c23)CC1)C1(c2ccc(Cl)cc2)CCNCC1,IC50,[1],0.0019 µM
